Assay results taken from patent publication US20130202530A1, “NOVEL RADIOTRACER” (IMPERIAL COLLEGE, priority 2010, published 2013).

Key:
[1] = system: human colon carcinoma xenograft HCT116; assay: Imaging response to PD0325901 treatment by [18F]D4-FCH-PET; type: in vivo, mice
Method: Size-matched HCT116 tumor bearing mice were randomized to receive daily treatment by oral gavage of vehicle (0.5% hydroxypropyl methylcellulose+0.2% Tween 80) or 25 mg/kg (0.005 mL/g mouse) of the mitogenic extracellular kinase inhibitor, PD0325901, prepared in vehicle. [^18F]D4-FCH-PET scanning was done after 10 daily treatments with the last dose administered 1 h before scanning. […] The results are illustrated in FIGS. 18 and 19.
These studies were performed in a reproducible tumor model system in which treatment outcomes had been previously characterized, i.e., the human colon carcinoma xenograft HCT116 treated with PD0325901 daily for 10 days (Leyton, J., et al., “Noninvasive imaging of cell proliferation following mitogenic extracellular kinase inhibition by PD0325901”, Mol Cancer Ther 2008; 7(9):3112-21). […] All imaging variables decreased after 10 days of drug treatment (P=0.05, FIG. 18). […] To understand the biomarker changes, the intrinsic cellular effect of PD0325901 on D4-FCH-phosphocholine formation was examined by treating exponentially growing HCT116 cells in culture with PD0325901 for 24 h and measuring the 60-min uptake of [^18F]D4-FCH in vitro.

[2] = system: CHKA; assay: CHKA expression in exponentially growing cells treated with PD0325901; type: cell-based
[3] = mouse, in vivo
Method: [^18F]FCH or [^18F](D4-FCH) (80-100 μCi) was injected via the tail vein into anesthetized non-tumor bearing C3H-Hej mice; isofluorane/O2/N2O anesthesia was used. Plasma samples obtained at 2, 15, 30 and 60 minutes after injection were snap frozen in liquid nitrogen and stored at −80° C. For analysis, samples were thawed and kept at 4° C. To approximately 0.2 mL of plasma was added ice-cold acetonitrile (1.5 mL). The mixture was then centrifuged (3 minutes, 15,493×g; 4° C.). The supernatant was evaporated to dryness using a rotary evaporator (Heidoloph Instruments GMBH & C0, Schwabach, Germany) at a bath temperature of 45° C. The residue was suspended in mobile phase (1.1 mL), clarified (0.2 μm filter) and analyzed by HPLC. […] All samples were analyzed on an Agilent 1100 series HPLC system equipped with a γ-RAM Model 3 radio-detector (IN/US Systems inc., FL, USA). The analysis was based on the method of Roivannen (Roivainen, A., et al., European Journal of Nuclear Medicine 2000; 27:25-32) using a Phenomenex Luna SCX column (10μ, 250×4.6 mm) and a mobile phase comprising of 0.25 M sodium dihydrogen phosphate (pH 4.8) and acetonitrile (90:10 v/v) delivered at a flow rate of 2 ml/min.

[4] = system: HCT116 human colon xenografts; conditions: mouse, in vivo
Method: Time course biodistribution was carried out for [^18F]fluoromethylcholine, [^18F]fluoromethyl-[1-^2H2]choline and [^18F]fluoromethyl-[1,2-^2H4]choline in nude mice bearing HCT116 human colon xenografts.
Human colon (HCT116) tumors were grown in male C3H-Hej mice (Harlan, Bicester, United Kingdom) as previously reported (Leyton, J., et al., Cancer Research 2005; 65(10):4202-10). Tumor dimensions were measured continuously using a caliper and tumor volumes were calculated by the equation: volume=(π/6)×a×b×c, where a, b, and c represent three orthogonal axes of the tumor. Mice were used when their tumors reached approximately 100 mm^3. […] The mice were sacrificed at pre-determined time points (2, 30 and 60 min) after radiotracer injection under terminal anesthesia to obtain blood, plasma, tumor, heart, lung, liver, kidney and muscle. Tissue radioactivity was determined on a gamma counter (Cobra II Auto-Gamma counter, Packard Biosciences Co, Pangbourne, UK) and decay corrected. Data were expressed as percent injected dose per gram of tissue.

[5] = target: T1, choline oxidase (Arthrobacter globiformis, UniProt Q7X2H8); assay: Enzymatic oxidation study using choline oxidase; conditions: 60 minute time point, room temperature
T1 sequence (Q7X2H8 1-546): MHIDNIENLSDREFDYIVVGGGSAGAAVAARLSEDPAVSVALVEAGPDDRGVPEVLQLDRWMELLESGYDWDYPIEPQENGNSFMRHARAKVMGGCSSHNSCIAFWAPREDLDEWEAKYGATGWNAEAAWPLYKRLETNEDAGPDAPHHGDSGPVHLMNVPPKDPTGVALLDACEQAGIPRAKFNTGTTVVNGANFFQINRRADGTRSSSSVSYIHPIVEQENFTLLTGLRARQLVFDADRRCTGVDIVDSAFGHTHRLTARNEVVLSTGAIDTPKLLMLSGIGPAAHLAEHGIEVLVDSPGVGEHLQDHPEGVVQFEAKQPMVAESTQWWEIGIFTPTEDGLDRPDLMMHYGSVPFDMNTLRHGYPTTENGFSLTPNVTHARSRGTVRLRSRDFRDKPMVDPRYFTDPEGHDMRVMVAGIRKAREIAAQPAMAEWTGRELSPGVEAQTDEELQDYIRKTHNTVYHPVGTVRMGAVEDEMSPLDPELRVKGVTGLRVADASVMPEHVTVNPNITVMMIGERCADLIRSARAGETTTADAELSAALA
Method: [^18F]fluoromethylcholine and [^18F]fluoromethyl-[1,2-^2H4]choline were evaluated in a choline oxidase model (Roivainen, A., et al., European Journal of Nuclear Medicine 2000; 27:25-32).
An aliquot of either [^18F]Fluoromethylcholine or [^18F]fluoromethyl-[1,2-^2H4]choline [^18F](100 μL, ˜3.7 MBq) was added to a vial containing water (1.9 mL) to give a stock solution. Sodium phosphate buffer (0.1 M, pH 7) (10 uL) containing choline oxidase (0.05 units/uL) was added to an aliquot of stock solution (190 uL) and the vial was then left to stand at room temperature, with occasional agitation. At selected time-points (5, 20, 40 and 60 minutes) the sample was diluted with HPLC mobile phase (buffer A, 1.1 mL), filtered (0.22 μm filter) and then ˜1 mL injected via a 1 mL sample loop onto the HPLC for analysis. Chromatographic separation was performed on a Waters C18 Bondapak (7.8×300 mm) column (Waters, Milford, Mass., USA) at 3 mL/min with a mobile phase of buffer A, which contained acetonitrile, ethanol, acetic acid, 1.0 mol/L ammonium acetate, water, and 0.1 mol/L sodium phosphate (800:68:2:3:127:10 [v/v]) and buffer B, which contained the same constituents but in different proportions (400:68:44:88:400:10 [v/v]). The gradient program comprised 100% buffer A for 6 minutes, 0-100% buffer B for 10 minutes, 100-0% B in 2 minutes then 0% B for 2 minutes.

[6] = system: human melanoma SKMEL-28 xenografts; conditions: mouse, in vivo
Method: Dynamic [^18F]FCH and [^18F]D4-FCH imaging scans were carried out on a dedicated small animal PET scanner, quad-HIDAC (Oxford Positron Systems). The features of this instrument have been described previously (Barthel, H., et al., Cancer Res 2003; 63(13):3791-8). For scanning the tail veins, vehicle- or drug-treated mice were cannulated after induction of anesthesia (isofluorane/O2/N2O). The animals were placed within a thermostatically controlled jig (calibrated to provide a rectal temperature of ˜37° C.) and positioned prone in the scanner. [^18F]FCH or [^18F]D4-FCH (2.96-3.7 MBq) was injected via the tail vein cannula and scanning commenced. Dynamic scans were acquired in list mode format over a 60 min period as reported previously (Leyton, J., et al., Cancer Research 2006; 66(15):7621-9). […] Dynamic data from these slices were averaged for each tissue (liver, kidney, muscle, urine, and tumor) and at each of the 19 time points to obtain time versus radioactivity curves. Corresponding whole body time versus radioactivity curves representing injected radioactivity were obtained by adding together radioactivity in all 200×160×160 reconstructed voxels. Tumor radioactivity was normalized to whole-body radioactivity and expressed as percent injected dose per voxel (% ID/vox). […] The area under the curve was calculated as the integral of % ID/vox from 0 to 60 min.

[7] = 20 min
Source text: The effect of deuterium substitution on bond strength was initially tested by evaluation of the chemical oxidation pattern of [^18F]fluoromethylcholine and [^18F]Fluoromethyl-[1,2-^2H4]choline using potassium permanganate.

SMILES | [18F]D4-FCH radiotracer retention in treated tumors ([1]; 25 mg/kg daily for 10 days, versus vehicle) | imaging variables (% ID/vox60, % ID/vox60max, AUC) ([1]; after 10 days of drug treatment, [18F]D4-FCH-PET) | CHKA expression in vitro [2] | percentage of parent compound in plasma [3] | tumor uptake (localization of radiotracer) [4] | parent radiotracer present (radio-HPLC distribution of choline species) [5] | % IDvox60max (average of the maximum pixel % ID/vox60 across 5 slices) [6] | proportion of the parent compound remaining [7]
O=C(NOC[C@H](O)CO)c1ccc(F)c(F)c1Nc1ccc(I)cc1F [PD0325901] | marked reduction in radiotracer retention | decreased | reduction |  |  |  |  | 
[2H]C([2H])(O)C([2H])([2H])[N+](C)(C)C[18F] [[^18F]D4-FCH, [^18F]fluoromethyl-[1,2-^2H4]-choline] |  |  |  | consistently higher | pronounced increase in tumor uptake | 29±4% | significantly higher | greater proportion of the parent compound remaining
C[N+](C)(C[18F])CCO [[^18F]FCH, [^18F]Fluoromethylcholine, reference compound] |  |  |  |  |  | 11±8% |  | 
